Where no end group is shown, it is not given here.
What was measured:
[1] = tested on: S. epidermidis (KCTC 1917); type: cell-based, Staphylococcus epidermidis; settings: broth microdilution in MHB, 37 °C, 24 h, 100% inhibition of growth
Method: (§1) The antibacterial efficacy of the synthesized peptides was evaluated by determining the minimal inhibitory concentrations (MICs) against six standard bacterial strains and five drug-resistant bacterial strains using the Clinical and Laboratory Standards Institute (CLSI) microdilution method. Melittin served as the positive control.
(§2) The minimal inhibitory concentrations (MICs) of the peptides against bacterial strains were determined using a modified broth-microdilution method in accordance with the National Committee for Clinical Laboratory Standards (NCCLS) guidelines. Overnight cultures were diluted in cation-adjusted Mueller–Hinton Broth (MHB) to achieve an inoculum density of 2 × 10^6 CFU/mL. A two-fold serial dilution of the peptide solution (100 μL) was introduced into microtiter plates, followed by the addition of 100 μL of bacterial suspension. The plates were then incubated at 37 °C for 24 h to determine the MICs. Wells containing only culture media served as negative controls, while those with added bacteria functioned as positive controls. The MIC, expressed in μM, was defined as the lowest peptide concentration that prevented visible bacterial growth. This protocol was also employed to determine MICs in the presence of physiological salts (150 mM of NaCl, 4.5 mM of KCl, 6 μM of NH4Cl, 1 mM of MgCl2, 2.5 mM of CaCl2, and 4 μM of FeCl3) and 20% human serum to assess the peptides’ efficacy under conditions more closely resembling physiological environments. All experiments were conducted in triplicate and repeated three times independently to ensure reproducibility and statistical significance of the results.

[2] = tested on: P. aeruginosa (KCTC 1637); type: cell-based, Pseudomonas aeruginosa; settings: broth microdilution in MHB, 37 °C, 24 h, 100% inhibition of growth
Method: as §1, §2

[3] = tested on: S. typhimurium (KCTC 1926); type: cell-based, Salmonella typhimurium; settings: broth microdilution in MHB, 37 °C, 24 h, 100% inhibition of growth
Method: as §1, §2

S. aureus (KCTC 1621) = type: cell-based, Staphylococcus aureus; settings: broth microdilution in MHB, 37 °C, 24 h, 100% inhibition of growth
Method: as §1, §2

[4] = tested on: sheep red blood cells (sRBCs); test: Hemolytic activity assay; type: cell-based; settings: 4% (v/v) sheep red blood cells in PBS, 1 h, 37 °C; 1 to 256 μM tested
Method: To assess toxicity in mammalian cells, we evaluated the hemolytic activity of the peptides on sheep red blood cells (sRBCs). […] The therapeutic index (TI), a measure commonly employed to evaluate the cell selectivity of antibacterial agents, was calculated as the ratio of the concentration causing 10% hemolysis of sRBCs (HC10) to the GM [19, 20, 21, 22].
The hemolytic activity of the peptides was tested through hemolysis assay of sheep red blood cells (sRBCs). The sRBCs were diluted in PBS to achieve a 4% (v/v) concentration. Subsequently, 100 μL of peptide solutions, ranging from 1 to 256 μM, was dispensed into a 96-well plate containing an equal volume of the erythrocyte suspension. After incubating for 1 h at 37 °C and centrifuging at 1000× g for 10 min, 100 μL of the supernatant was transferred to a new 96-well plate. Hemoglobin release was quantified using a microplate reader at a wavelength of […]. The percentage of hemolysis was calculated using percentage hemolysis = 100 × [[…]], where A represents the absorbance of the peptide-treated sample at 540 nm, A0 corresponds to the absorbance value representing 0% hemolysis in PBS, and At corresponds to the absorbance value representing 100% hemolysis in 0.1% Triton X-100.

MRSA (CCARM 3090) = type: cell-based, methicillin-resistant Staphylococcus aureus; settings: broth microdilution in MHB, 37 °C, 24 h, 100% inhibition of growth
Method: as §1, §2

MRSA (CCARM 3089) = type: cell-based, methicillin-resistant Staphylococcus aureus; settings: broth microdilution in MHB, 37 °C, 24 h, 100% inhibition of growth
Method: as §1, §2

[5] = tested on: preformed MDRPA (CCARM 2095) biofilms; type: cell-based, multidrug-resistant Pseudomonas aeruginosa; settings: 24 h treatment; for MBEC50: 50% eradication; for MBEC90: 90% eradication
Method: While preventing biofilm formation on surfaces is crucial, treating established biofilm infections presents a significant challenge due to the extracellular polymeric substance (EPS) matrix hindering antibiotic penetration and the high cell density within mature biofilms. To address this challenge, we evaluated the ability of BP100 and its analogs to eradicate established MDRPA biofilms over a 24 h period. The minimum biofilm eradication concentration (MBEC90) was determined using crystal violet staining as the lowest concentration that reduced biomass by more than 90%. Among these peptides, BP5, BP6, BP7, BP8, BP9, BP11, and BP13 eradicated preformed MDRPA biofilms by more than 90% at a concentration of 8 μM (Figure 3c,d and Table 3).
The minimal biofilm eradication concentration (MBEC) for peptides against the multidrug-resistant Pseudomonas aeruginosa (MDRPA) (CCARM 2095) strain was assessed using the Calgary Biofilm Device (CBD), supplied by Innovotech, Edmonton, AB, Canada. A bacterial suspension with a density of (1 × 10^6) CFU/mL in (150 µL) of Luria–Bertani (LB) media was dispensed into each well of a 96-well microtiter plate, which was equipped with a peg lid (Innovotech, product code: 19111). This plate was incubated at 37 °C for 24 h with agitation at 110 rpm, promoting biofilm formation on the pegs. Subsequently, the peg lid was washed with phosphate-buffered saline (PBS, 0.01 M) and relocated to a fresh plate containing varying peptide concentrations (200 µL per well). The biofilms were then subjected to these peptides under the same incubation conditions. After another PBS rinse, the peg lid was moved to a recovery plate filled with (200 µL) of LB media per well. To detach the biofilms from the pegs, the recovery plate underwent sonication in a water bath for 10 to 15 min. Finally, the recovery plate was incubated at 37 °C for 24 h with agitation at 110 rpm, allowing any surviving bacteria to proliferate and cause turbidity. The MBEC is defined as the lowest concentration of peptides that inhibited turbidity formation in the recovery plate in comparison to sterility controls. This experiment was conducted in triplicate, and the median value from each trial was recorded.

Molecule | Minimal Inhibitory Concentration (MIC) [1] [µM] | Minimal Inhibitory Concentration (MIC) [2] [µM] | Minimal Inhibitory Concentration (MIC) [3] [µM] | Minimal Inhibitory Concentration (MIC) (S. aureus (KCTC 1621)) [µM] | HC10 (peptide concentration that caused 10% hemolysis) [4] [µM] | Minimal Inhibitory Concentration (MIC) (MRSA (CCARM 3090)) [µM] | Minimal Inhibitory Concentration (MIC) (MRSA (CCARM 3089)) [µM] | MBEC50 [5] [µM] | MBEC90 [5] [µM]
CC[C@H](C)[C@H](NC(=O)[C@H](CCCCN)NC(=O)[C@H](CCCCN)NC(=O)[C@H](Cc1ccccc1)NC(=O)[C@H](CC(C)C)NC(=O)[C@H](CCCCN)NC(=O)[C@@H](N)CCCCN)C(=O)N[C@@H](CC(C)C)C(=O)N[C@@H](CCCCN)C(=O)N[C@@H](Cc1ccc(O)cc1)C(=O)N[C@@H](CC(C)C)C(N)=O [BP100] | 4 | 16 | 4 | 4 | >256 | 64 | 32 | 16 to 32 | 32
KKWFKKWLKWL-NH2 [BP13] | 8 | 16 | 8 | 4 | >256 | 32 | 32 | 4 | 8
KKLFKKWWKYL-NH2 [BP9] | 4 | 16 | 4 | 8 | >256 | 64 | 64 | 4 | 8
KKLFKKWWKWL-NH2 [BP16] | 16 | 8 | 16 | 16 | >256 | 128 | 16 | 16 | 32
CC[C@H](C)[C@H](NC(=O)[C@H](CCCCN)NC(=O)[C@H](CCCCN)NC(=O)[C@H](Cc1c[nH]c2ccccc12)NC(=O)[C@H](CC(C)C)NC(=O)[C@H](CCCCN)NC(=O)[C@@H](N)CCCCN)C(=O)N[C@@H](CC(C)C)C(=O)N[C@@H](CCCCN)C(=O)N[C@@H](Cc1ccc(O)cc1)C(=O)N[C@@H](CC(C)C)C(N)=O [BP1] | 8 | 16 | 8 | 8 | >256 | 64 | 32 | 8 | 16
KKWFKKILKWL-NH2 [BP6] | 2 | 16 | 4 | 2 | >256 | 16 | 8 | 4 | 8
